Source: BigSolDB 2.1

NC12CC3CC(C1)CC(O)(C3)C2
solubility (mole fraction)
Conditions	in THF	in ethanol	in methanol	in n-butanol	in n-propanol	in water
278.15 K	0.0201	0.0608	0.0136	0.0626	0.133	0.0125
283.15 K	0.0213	0.0768	0.0176	0.0657	0.145	0.0146
288.15 K	0.0229	0.0974	0.0209	0.0679	0.157	0.0173
293.15 K	0.0247	0.123	0.0253	0.0704	0.171	0.0207
298.15 K	0.0269	0.151	0.0297	0.0736	0.185	0.0233
303.15 K	0.0294	0.183	0.0352	0.0761	0.2	0.0266
308.15 K	0.0323	0.219	0.0422	0.0799	0.216	0.0306
313.15 K	0.0356	0.256	0.0509	0.0827	0.234	0.0354
318.15 K	0.0394	0.296	0.0618	0.0868	0.252	0.0413
323.15 K	0.0439	0.337	0.0754	0.0904	0.272	0.0486
328.15 K	0.049	0.389	0.0926	0.0943	0.293	0.0575
